From patent US20140155384A1, “COMPOUNDS AND METHODS OF TREATING DIABETES” (Medivation Technologies, Inc., priority 2011, published 2014) come the findings set out here.

By inhibition is commonly meant the change of the read-out against control, counted positive when it falls.

For experiment [1], the target named is T1, rat adrenergic α1B receptor (Rattus norvegicus, UniProt P15823).
T1 construct: rat adrenergic α1B receptor obtained from Wistar Rat liver; from tissue; host or cells: Wistar rat liver
T1 sequence (P15823 1-515): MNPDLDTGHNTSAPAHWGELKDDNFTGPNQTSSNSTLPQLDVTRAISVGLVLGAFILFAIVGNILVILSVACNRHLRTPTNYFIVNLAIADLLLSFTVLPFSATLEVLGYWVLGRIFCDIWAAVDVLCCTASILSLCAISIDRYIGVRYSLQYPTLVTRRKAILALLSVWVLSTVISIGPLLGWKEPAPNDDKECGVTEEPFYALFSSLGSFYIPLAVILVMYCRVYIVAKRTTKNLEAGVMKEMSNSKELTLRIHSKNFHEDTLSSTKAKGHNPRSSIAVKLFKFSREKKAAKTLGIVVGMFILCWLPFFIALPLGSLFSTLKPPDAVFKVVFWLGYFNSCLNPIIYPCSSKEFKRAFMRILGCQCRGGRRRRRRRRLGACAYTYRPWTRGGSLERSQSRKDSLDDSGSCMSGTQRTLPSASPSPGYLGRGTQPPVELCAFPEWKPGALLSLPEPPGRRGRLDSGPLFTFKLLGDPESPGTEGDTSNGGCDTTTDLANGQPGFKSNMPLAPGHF
As to the kind of experiment: Radioligand binding, adrenergic α1B receptor ([3H]Prazosin). To be noted: 0.1 μM compound, Wistar rat liver, read-out: Percentage inhibition of ligand binding, Adrenergic α1B. An outline of the steps: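 Wistar rat liver α1B receptor preparation incubated with 0.25 nM [3H]prazosin and compound for 60 min at 25° C in 50 mM Tris-HCl pH 7.4, 0.5 mM EDTA; nonspecific binding defined with 10 μM phentolamine.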

Experiment [2] deals with T2, human recombinant adrenergic α2B receptor (Homo sapiens, UniProt P18089).
T2 construct: expressed in transfected cells; host or cells: CHO-K1
T2 sequence (P18089 1-450): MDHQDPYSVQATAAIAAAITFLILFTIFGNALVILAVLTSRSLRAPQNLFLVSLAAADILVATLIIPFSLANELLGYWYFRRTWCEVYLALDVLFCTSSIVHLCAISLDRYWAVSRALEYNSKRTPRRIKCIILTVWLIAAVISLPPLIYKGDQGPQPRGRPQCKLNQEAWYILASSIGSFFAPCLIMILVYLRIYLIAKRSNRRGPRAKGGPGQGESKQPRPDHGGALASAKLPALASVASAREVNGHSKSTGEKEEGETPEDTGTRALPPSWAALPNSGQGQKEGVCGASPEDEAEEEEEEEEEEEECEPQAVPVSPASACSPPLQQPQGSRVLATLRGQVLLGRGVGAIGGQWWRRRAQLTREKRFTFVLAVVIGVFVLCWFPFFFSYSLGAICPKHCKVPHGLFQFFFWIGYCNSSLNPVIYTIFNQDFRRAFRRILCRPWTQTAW
As to the kind of experiment: Radioligand binding, adrenergic α2B receptor ([3H]Rauwolscine). To be noted: 0.1 μM compound, CHO-K1 cells, read-out: Percentage inhibition of ligand binding, Adrenergic α2B. A digest of the protocol:
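Percent inhibition of specific [3H]Rauwolscine (2.5 nM) binding, compounds at ≤1 μM, 1% DMSO vehicle, 10 μM prazosin defining nonspecific. Receptor: human α2B expressed in CHO-K1 cells, 60 min incubation at 25 °C in Tris-HCl pH 7.4 buffer (MgCl2, EDTA, BSA); filtered, washed, counted.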

Experiment [3] concerns the target T3, human recombinant adrenergic α2A receptor (Homo sapiens, UniProt P08913).
T3 construct: expressed in transfected cells; host or cells: insect Sf9 cells
T3 sequence (P08913 1-465): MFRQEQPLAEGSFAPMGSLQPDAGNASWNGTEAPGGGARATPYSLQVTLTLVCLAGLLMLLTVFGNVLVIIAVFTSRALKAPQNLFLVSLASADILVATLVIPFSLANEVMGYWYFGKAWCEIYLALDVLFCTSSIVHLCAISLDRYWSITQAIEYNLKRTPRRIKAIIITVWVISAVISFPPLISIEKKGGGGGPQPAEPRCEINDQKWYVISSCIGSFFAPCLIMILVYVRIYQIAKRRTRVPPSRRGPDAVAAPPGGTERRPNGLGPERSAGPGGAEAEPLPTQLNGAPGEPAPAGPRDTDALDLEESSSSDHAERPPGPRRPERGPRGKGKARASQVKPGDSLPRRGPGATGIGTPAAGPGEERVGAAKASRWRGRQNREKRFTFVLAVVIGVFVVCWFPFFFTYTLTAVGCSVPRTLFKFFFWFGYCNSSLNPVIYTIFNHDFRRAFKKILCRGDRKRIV
As to the kind of experiment: Radioligand binding, adrenergic α2A receptor ([3H]MK-912). To be noted: 0.1 μM compound; Sf9 cells; 1 nM [3H]MK-912; read-out: Percentage inhibition of ligand binding, Adrenergic α2A. A digest of the protocol: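 Percent inhibition of specific [3H]MK-912 (1 nM) binding measured by filtration counting, compounds tested at ≤1 μM in 1% DMSO. Receptor: human α2A from Sf9 cells; incubation 60 min, 25 °C, pH 7.4; 10 μM WB-4101 defined nonspecific binding.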

Experiment [4] concerns the target T4, human recombinant adrenergic α1D receptor (Homo sapiens, UniProt P25100).
T4 construct: expressed in transfected cells; host or cells: HEK-293
T4 sequence (P25100 1-572): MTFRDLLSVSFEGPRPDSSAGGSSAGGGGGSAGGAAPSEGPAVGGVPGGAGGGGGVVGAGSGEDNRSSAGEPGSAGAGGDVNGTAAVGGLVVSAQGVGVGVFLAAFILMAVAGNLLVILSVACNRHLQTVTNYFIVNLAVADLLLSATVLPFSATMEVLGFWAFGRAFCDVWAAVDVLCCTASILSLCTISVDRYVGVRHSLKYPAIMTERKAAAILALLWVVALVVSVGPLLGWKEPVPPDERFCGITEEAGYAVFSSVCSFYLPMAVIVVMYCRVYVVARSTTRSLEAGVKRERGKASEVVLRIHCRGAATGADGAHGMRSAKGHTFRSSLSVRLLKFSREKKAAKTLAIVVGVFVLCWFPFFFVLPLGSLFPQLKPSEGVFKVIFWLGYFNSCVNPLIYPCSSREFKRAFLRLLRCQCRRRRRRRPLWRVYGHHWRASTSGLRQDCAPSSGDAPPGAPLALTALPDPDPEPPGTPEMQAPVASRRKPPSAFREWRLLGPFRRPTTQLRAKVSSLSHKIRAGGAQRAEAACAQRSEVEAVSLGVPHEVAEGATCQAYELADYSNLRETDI
As to the kind of experiment: Radioligand binding, adrenergic α1D receptor ([3H]Prazosin). As to conditions: 0.1 μM compound; HEK-293 cells; 0.6 nM [3H]Prazosin; read-out: Percentage inhibition of ligand binding, Adrenergic α1D. Here is the method: Compounds were incubated with 0.6 nM [3H]Prazosin for 60 min at 25° C. Non-specific binding was estimated in the presence of 10 μM phentolamine. Receptor proteins were filtered and washed, the filters were then counted to determine [3H]Prazosin specifically bound. Compounds were screened at 1 μM or lower, using 1% DMSO as vehicle. Biochemical assay results are presented as the percent inhibition of specific binding in Table 2.

Regarding `Cc1ccc2c(c1)c1c(n2-c2cccc(-c3ccc4[nH]cnc4c3)c2)CCN(C)C1` [Compound 54, 5-(3-(1H-benzo[d]imidazol-5-yl)phenyl)-2,8-dimethyl-2,3,4,5-tetrahydro-1H-pyrido[4,3-b]indole], the inhibition at 0.1 µM was 8% in experiment [1], 3% in experiment [2], 23% in experiment [3] and -3% in experiment [4].
Consider `Cc1ccc2c(c1)c1c(n2-c2cccc(-c3cn[nH]c3)c2)CCN(C)C1` [Compound No. 70, 5-(3-(1H-pyrazol-4-yl)phenyl)-2,8-dimethyl-2,3,4,5-tetrahydro-1H-pyrido[4,3-b]indole], for which the inhibition at 0.1 µM is 18% in experiment [1], 19% in experiment [2], 34% in experiment [3] and 9% in experiment [4].
Take `Cc1ccc2c(c1)c1c(n2-c2cccc(-c3ccc(C)nc3)c2)CCN(C)C1` [Compound 60, 2,8-dimethyl-5-(3-(6-methylpyridin-3-yl)phenyl)-2,3,4,5-tetrahydro-1H-pyrido[4,3-b]indole]: the inhibition at 0.1 µM in experiment [1] turned out to be 4%; in experiment [2], 14%; in experiment [3] it was 62%; in experiment [4] it was 9%.
In the case of `CC(=O)Nc1ccc(-c2cccc(-n3c4c(c5cc(C)ccc53)CN(C)CC4)c2)cn1` [Compound 45, N-(5-(3-(2,8-dimethyl-3,4-dihydro-1H-pyrido[4,3-b]indol-5(2H)-yl)phenyl)pyridin-2-yl)acetamide], the inhibition at 0.1 µM in experiment [1] worked out at 1%; in experiment [2] it was 6%; in experiment [3] it was 12%; in experiment [4], 1%.
In the case of `Cc1ccc2c(c1)c1c(n2-c2ccccc2-c2ccc(F)nc2)CCN(C)C1` [Compound No. 84, 5-(2-(6-fluoropyridin-3-yl)phenyl)-2,8-dimethyl-2,3,4,5-tetrahydro-1H-pyrido[4,3-b]indole], the inhibition at 0.1 µM amounted to 54% in experiment [1], 89% in experiment [2], 68% in experiment [3] and 58% in experiment [4].
Turning to `Cc1ccc2c(c1)c1c(n2-c2ccccc2-c2ccncc2)CCN(C)C1` [Compound 5, 2,8-dimethyl-5-(2-pyridin-4-yl-phenyl)-2,3,4,5-tetrahydro-1H-pyrido[4,3-b]indole], the inhibition at 0.1 µM in experiment [1] is 52%; in experiment [2], 78%; in experiment [3], 26%; in experiment [4], 45%.
As for `Cc1ccc2c(c1)c1c(n2-c2ccccc2-c2ccnn2C)CCN(C)C1` [Compound 32], the inhibition at 0.1 µM in experiment [1] came to 73%; in experiment [2], 80%; in experiment [3] it was 72%; in experiment [4], 65%.
Consider `Cc1ccc2c(c1)c1c(n2-c2cscc2-c2cncc3ccccc23)CCN(C)C1` [Compound 34], for which the inhibition at 0.1 µM in experiment [1] was 16%; in experiment [2] it was 1%; in experiment [3] it was 28%; in experiment [4], 18%.
The like results for `Cc1ccc2c(c1)c1c(n2-c2ccccc2-c2ccc(C)s2)CCN(C)C1` [Compound No. 81, 2,8-dimethyl-5-(2-(5-methylthiophen-2-yl)phenyl)-2,3,4,5-tetrahydro-1H-pyrido[4,3-b]indole] were, in that order, 37%, 95%, 88% and 36%.
In the case of `Cc1ccc2c(c1)c1c(n2-c2cscc2-c2ccc(F)nc2)CCN(C)C1` [Compound 35], the inhibition at 0.1 µM in experiment [1] worked out at 67%; in experiment [2], 95%; in experiment [3], 84%; in experiment [4], 68%.
The like results for `Cc1csc(-c2ccccc2-n2c3c(c4cc(C)ccc42)CN(C)CC3)c1` [Compound 36] were, in that order, 13%, 79%, 90% and 26%.
